Key:
[1] = biological target: T1, Ba/F3 cells expressing p210Bcr-Abl-T315I (Homo sapiens, UniProt P00519, T315I, cells depend on it); assay: phenoresponse-based cellular assay (cell count and viability), Ba/F3 T315I test cells; design: species or system murine; conditions: concentration inhibiting growth of the cell line by 50% in the cellular assay, read-out: T315I (IC50 activity category);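 note: cells counted by automated microcell imaging, viability scored by trypan blue exclusion, phenoresponse judged against parental Ba/F3 and Ba/F3 carrying wild-type p210Bcr-Abl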
T1 construct: fused on or other part: P11274 (Breakpoint cluster region protein)

[2] = tested on: wild type non-transformed Ba/F3 cells; assay: phenoresponse-based cellular assay, wild type Ba/F3 control cells; design: species or system murine; conditions: Mus musculus; concentration inhibiting growth of the cell line by 50% in the cellular assay; wt BaF3 control cells; read-out: wt BaF3 (IC50 activity category)

Structure (SMILES)	GI50 [1] [nM]	IC50 [2] [nM]
CC(C(=O)O)c1ccc(Nc2ccc(/C=N/Nc3ncc(F)c(N4CCOCC4)n3)nc2)cc1 (stereo not drawn)	> 10000	≥ 10000
Fc1cnc(N/N=C/c2ccc(Nc3cccc(C(F)(F)F)c3)cn2)nc1-c1cncc(C2CC2)c1	< 10000	< 10000
CN(/N=C/c1ccc(Nc2cccc(C(F)(F)F)c2)cn1)c1ncc(F)c(N2CCOCC2)n1	< 300	< 300
Cc1ccc(/C=N/Nc2ncc(F)c(N3CCOCC3)n2)cc1	> 10000	≥ 10000
Cc1cc(Nc2ccc(/C=N/Nc3ncc(F)c(N4CCOCC4)n3)nc2)cc(N2CCNCC2)c1	< 1000	< 10000
Fc1cnc(N/N=C/c2ccccc2)nc1N1CCOCC1	> 10000	≥ 10000
Fc1cnc(N/N=C/c2ccc(Nc3ccc(N4CCOCC4)cc3)cn2)nc1N1CCOCC1	< 1000	< 1000
CN(C)c1cc(O)cc(Nc2ccc(/C=N/Nc3ncc(F)c(N4CCOCC4)n3)nc2)c1	< 1000	< 10000
Oc1ccc(Br)cc1/C=N/Nc1ncc(F)c(N2CCOCC2)n1	< 1000	< 1000
O=C(NNc1ncc(F)c(N2CCOCC2)n1)c1ccc(Nc2cccc(C(F)(F)F)c2)cn1	< 1000	< 1000
O=C(Nc1cccc(C(F)(F)F)c1)c1ccc(/C=N/Nc2ncc(F)c(N3CCOCC3)n2)nc1	< 1000	< 10000
Fc1cnc(N/N=C/c2ccc(Nc3ccc(-c4ccccn4)c(Cl)c3)cn2)nc1N1CCOCC1	< 1000	< 1000
Oc1ccc(-c2ccc(Nc3ccc(/C=N/Nc4ncc(F)c(N5CCOCC5)n4)nc3)cc2C(F)(F)F)cc1	< 300	< 300
Fc1cnc(N/N=C/c2ccc(-c3cccc(C(F)(F)F)c3)cn2)nc1N1CCOCC1	< 1000	< 1000
Oc1c(Cl)cc(-c2cccc(C(F)(F)F)c2)cc1/C=N/Nc1ncc(F)c(N2CCOCC2)n1	< 300	< 1000
Fc1cnc(N/N=C/c2ccc(Nc3cccc(C(F)(F)F)c3)cn2)nc1N1CCOCC1	< 300	< 300
Cc1cccc(Cl)c1NC(=O)C/C=N/Nc1ncc(F)c(N2CCOCC2)n1	> 10000	≥ 10000
Fc1cnc(N/N=C/c2ccc(Nc3cccc(C(F)(F)F)c3)cn2)nc1NCc1ccccc1	< 300	< 300

Structure (SMILES)	GI50 [1] [nM]	IC50 [2] [nM]
Cc1cc(Nc2cccc(C(F)(F)F)c2)ccc1/C=N/Nc1ncc(F)c(N2CCOCC2)n1	> 10000	≥ 10000
Cc1ccccc1/C=N/Nc1ncc(F)c(N2CCOCC2)n1	> 10000	≥ 10000
Fc1cnc(N/N=C/c2ccc(Nc3cccc(C(F)(F)F)c3)cn2)nc1NCC1CC1	< 300	< 300
Fc1cnc(N/N=C/c2ccc(Nc3cccc(-n4ccnc4)c3)cn2)nc1N1CCOCC1	< 1000	< 1000
Fc1cnc(N/N=C/c2ccccn2)nc1N1CCOCC1	< 1000	< 1000
Oc1cccc(Nc2cccc(Nc3ccc(/C=N/Nc4ncc(F)c(N5CCOCC5)n4)nc3)c2)c1	< 1000	< 1000
Fc1cnc(N/N=C/c2ccc(Nc3cccc(C(F)(F)F)c3)cn2)nc1NCCN1CCOCC1	< 300	< 300
Oc1c(Cl)cc(Br)cc1/C=N/Nc1ncc(F)c(N2CCOCC2)n1	< 300	< 1000
Oc1ccccc1/C=N/Nc1ncc(F)c(N2CCOCC2)n1	< 10000	< 10000
C/C(=N\Nc1ncc(F)c(N2CCOCC2)n1)c1ccc(Nc2cccc(C(F)(F)F)c2)cn1	< 300	< 300
Oc1cccc(-c2cccc(Nc3ccc(/C=N/Nc4ncc(F)c(N5CCOCC5)n4)nc3)c2)c1	< 300	< 1000
O=C(Nc1cccc(C(F)(F)F)c1)c1cc(Cl)c(O)c(/C=N\Nc2ncc(F)c(N3CCOCC3)n2)c1	< 1000	< 1000
O=C(C/C=N/Nc1ncc(F)c(N2CCOCC2)n1)Nc1cccc(C(F)(F)F)c1	> 10000	≥ 10000
Fc1cnc(N/N=C/c2ccc(Nc3cccc(C(F)(F)F)c3)cn2)nc1-c1cncc(-c2ccccc2)c1	< 1000	< 1000
Fc1cnc(N/N=C/c2ccc(Nc3ccc(-c4cccnc4)cc3)cn2)nc1N1CCOCC1	< 300	< 1000
Cc1cccc(Cl)c1-c1ccc(Nc2ccc(/C=N/Nc3ncc(F)c(N4CCOCC4)n3)nc2)cc1	< 300	< 300
Oc1cccc(-c2ccc(Nc3ccc(/C=N/Nc4ncc(F)c(N5CCOCC5)n4)nc3)cc2)c1	< 300	< 300
O=C(Nc1cccc(C(F)(F)F)c1)c1cccc(/C=N/Nc2ncc(F)c(N3CCOCC3)n2)n1	> 10000	≥ 10000

Source: patent US20090275070A1, “Compounds and Methods of Identifying, Synthesizing, Optimizing and Profiling Protein Modulators” (priority 2005, published 2009)
